Results on ten compounds are retold here after US5041535A, “Antileukemic and immunostimulant peptides” (Richter Gedeon Vegyeszeti Gyar Rt., priority 1986, dated 1991).

Square brackets hold non-standard residues; d marks the D form. Peptide text beside a SMILES is read from it. pGlu = O=C1CC[C@@H](C(=O)O)N1

Assay [1] relates to human K-562 erythroleukaemical cell-line. Briefly: Inhibition of the proliferation of tumor cells (K-562). Format: cell-based. Conditions: 72nd hour after treatment, percentage of the control. How it is done: In the test human K-562 erythroleukaemical cell-line is used (Karolinska Institute, Stockholm). Incubation is carried out in a nutrient medium designated RPMI-1640 (manufactured by Flow, Great Britain) comprising 10% of foetal calf serum, at a temperature of 37° C., in a humidified incubator containing 3% of carbon dioxide, in plastic dishes. Every point of measurement corresponds to the average of the data measured in three dishes, each. At the beginning of the test the dilution amounts to 0.5×10^5 cells/ml. Treatment is carried out 24 hours after dilution in a manner that the medium is not changed after the treatment. The cells are counted for 96 hours after dilution every 24th hour wit the aid of a Buerker chamber.
Under the effect of the peptide in the 24th hour after treatment the cell number stagnates and later it increases to a very small extent. […] The tumor-cell division inhibiting effect of the new peptides is summarized in Table 1 (72 hours after treatment). The rate of inhibition is expressed in the percentage of the control. It clearly appears from the data of the Table that the tested peptides inhibit the proliferation of human K-562 erythroleukaemic cells.

Assay [2] concerns antibody production inhibited by cyclophosphamide. Description: Effect on antibody production in mice treated with cyclophosphamide. The class given is in vivo, CELP mice. Conditions: cyclophosphamide 100 mg/kg i.p., titer on 6th day. How it is done: The effect on in vivo antibody production is tested on CELP mice treated with a 100 mg/kg body weight dose of cyclophosphamide {2-[bis-(2-chloroethyl)-amino]-tetrahydro-2H-1,3,2-oxaza -phosphorine-2-oxide; method: Z. Naturforsch. 35B, 1476 (1980)}. The mice are intraperitoneally immunized with a 1% sheep erythrocyte suspension previously washed three times with a 0.9% sodium chloride solution after 10 minutes of centrifuging at 2,500 r.p.m. Simultaneously with immunization carried out on the 0. day, the activity of the immune system is suppressed by means of treatment with a 100 mg/kg i.p. does of cyclophosphamide. On the 3rd day of the test the peptides are administered to the animals intraperitoneally in a dose of 5, 50 and occasionally 100 mg/kg respectively. On the 6th day of the test blood is taken retroorbitally from the mice and the anti-sheep erythrocyte titer of the serum is determined. […] The effect of the peptides is expressed as percentage of the relief of inhibition (G %).

Assay [3] relates to inflammation induced by oxozolone. Briefly: Dermatitis test induced with oxazolone. The class given is in vivo, CFLP mice. The following applies: 24th hour after treatment, ear weight increase. As to the method:
In this test a modified pharmacological model of D. P. Evans et al. [Br. J. Pharmac. 43, 403-488 (1971)] is used.
The abdominal skin of male CFLP mice weighing 20-22 g is painted after the removal of the hair with 0.1 ml of a 2% solution of oxazolon (4-ethoxymethyl-2-phenyl-oxazoline, manufacturer Sigma) in sunflower oil. On the right ear of the test animals 7 days after sensitization (painting) inflammatory reaction is induced with the aid of 10 μl of a 2% acetonous oxazolone solution and simultaneously the animals are treated with a 1 or 2 mg/kg, respectively, i.p. does of the test compound. The test compound is dissolved in a physiological sodium chloride solution in such a concentration that the active ingredient content corresponding to the dose should be dissolved in a volume of 0.5 ml/10 g animal body weight.
The antiinflammatory effect is determined as follows: the animals are sacrificed in the 24th hour after treatment, whereupon the right and left ears are cut off. The percentual weight increase of the right ear related to the left ear is characteristic of the rate of inflammation induced during the test, while the percentual reduction of weight increase of the treated animals related to the untreated control is proportional to the antiinflammatory effect. In Table 4 the reduction of weight increase (antiinflammatory effect) achieved by the test compounds is disclosed, as the percentage of the untreated control.

The subject of assay [4] is lymphocytes inhibited by Azathioprine. Description: E-rosetta test inhibited by Azathioprine. The class given is cell-based. How it is done: Inhibition of the proliferation of T-lymphocytes is tested in the E-rosetta test inhibited by Azathioprine [6-(1-methyl-4-nitroimidazole-5-yl-thio)-purine; Thymus 1, 195 (1980)].
To 200 μl of a healthy lymphocyte cell-suspension 500 μl/ml of Azathioprine and 200 μl of a separate dilution of the test compound in HBBS buffer (manufacturer: Flow, Great Britain) are added (concentration range: 10^-3 to […]). The mixture is incubated at a temperature of 37° C. in air containing 5% of carbon dioxide for 60 minutes, whereupon 200 μl of a 1% sheep erythrocyte suspension are added. The mixture thus-obtained is centrifuged at 1,000 r.p.m. for 5 minutes, the supernatant is removed by decanting and in the suspension the lymphocytes forming E-rosetta are counted under a microscope from at least 400 cells.
Under the effect of the peptides the E-rosetta forming activity of the lymphocytes inhibited by Azathioprine increases to different extent. […] It appears from the data of Table 2 that the tested peptides increase the E-rosetta forming capacity of inhibited lymphocytes, i.e. the peptides of the present invention show immunostimulant effect.

Setting [5] is: peptide 5 mg/kg i.p. on 3rd day.
The mark [6] stands for this setting: peptide 50 mg/kg i.p. on 3rd day.

Consider `CC(C)C[C@H](NC(=O)[C@@H](N)CCC(=O)O)C(=O)N[C@H](C(=O)N[C@@H](C)C(=O)O)C(C)C` [Peptide 13, GIu-Leu-VaI-AIa-OH] (H-ELVA-OH), for which the “Inhibition of the proliferation of K-562 cells, inhibition (c %)” value (from here on “Inhibition of the proliferation … (c %)”) in assay [1] (peptide 1/ug/ml) was 55%; in assay [1] (peptide 10/ug/ml) it was 65%. The “Restoration of primary immune answer, G %” value (“Restoration … G %” below) in assay [2] (setting [5]) was found to be 20.9%; in assay [2] (setting [6]), 32.8%. Besides, in assay [3] (1 mg/kg i.p.), the “Inhibition of inflammation induced by oxozolone, inhibition as % of control” value (“Inhibition … as % of control” below) is 40%.

Turning to `NCCCC[C@H](NC(=O)[C@H](CCC(=O)O)NC(=O)[C@@H]1CCC(=O)N1)C(N)=O` [Peptide 2, Glp-Glu-Lys-NH2] ([pGlu]-Glu-Lys-NH2), the entries for the “Inhibition of the proliferation … (c %)” value in assay [1] (peptide 1/ug/ml) and in assay [1] (peptide 10/ug/ml) were 40% and 55%, respectively. Besides, the “Relief of inhibition (R %) of E-rosetta forming activity” value is 25.4% in assay [4] (peptide 10^-3 mole/l); 20.2% in assay [4] (peptide 10^-5 mole/l); 31.7% in assay [4] (peptide 10^-7 mole/l); 24.3% in assay [4] (peptide 10^-9 mole/l); 37.1% in assay [4] (peptide 10^-11 mole/l). Besides, the “Restoration … G %” value in assay [2] (setting [5]) came to 23.0%; in assay [2] (setting [6]), 3.0%.

For `N=C(N)NCCC[C@H](N)C(=O)N[C@@H](CCCCN)C(=O)N[C@@H](CC(=O)O)C(N)=O` [Peptide 4, Arg-Lys-Asp-NH2] (H-Arg-Lys-Asp-NH2), the “Inhibition of the proliferation … (c %)” value was 25% in assay [1] (peptide 1/ug/ml) and 50% in assay [1] (peptide 10/ug/ml). The “Relief of inhibition (R %) of E-rosetta forming activity” value in assay [4] (peptide 10^-3 mole/l) came to 29.7%; in assay [4] (peptide 10^-5 mole/l), 30.0%; in assay [4] (peptide 10^-7 mole/l) it was 18.7%; in assay [4] (peptide 10^-9 mole/l) it was 23.9%; in assay [4] (peptide 10^-11 mole/l), 18.5%. Also, the “Restoration … G %” value in assay [2] (peptide 100 mg/kg i.p. on 3rd day) is recorded as 28.5%. Also, the “Inhibition … as % of control” value in assay [3] (1 mg/kg i.p.) was 27%.

In the case of `NCCCC[C@H](NC(=O)[C@H](CCCCN)NC(=O)[C@H](CCC(=O)O)NC(=O)[C@@H](N)CCCCN)C(=O)O` [Peptide 10, Lys-GIu-Lys-Lys-OH] (H-KEKK-OH), the entries for the “Inhibition of the proliferation … (c %)” value in assay [1] (peptide 1/ug/ml) and in assay [1] (peptide 10/ug/ml) were 28% and 40%, respectively. The “Relief of inhibition (R %) of E-rosetta forming activity” value in assay [4] (peptide 10^-3 mole/l) is listed as 22.9%; in assay [4] (peptide 10^-5 mole/l) it was 16.3%; in assay [4] (peptide 10^-7 mole/l) it was 25.2%; in assay [4] (peptide 10^-9 mole/l) it was 21.1%; in assay [4] (peptide 10^-11 mole/l), 26.6%. The entries for the “Restoration … G %” value in assay [2] (setting [5]) and in assay [2] (setting [6]) were 15.5% and 37.7%, respectively. Besides, the “Inhibition … as % of control” value in assay [3] (1 mg/kg i.p.) came out at 22%; in assay [3] (2 mg/kg i.p.), 79%.

Turning to `N=C(N)NCCC[C@H](N)C(=O)N[C@@H](CCCCN)C(=O)N[C@@H](CCC(=O)O)C(N)=O` [Peptide 3, Arg-Lys-Glu-NH2] (H-Arg-Lys-Glu-NH2), the results for the “Inhibition of the proliferation … (c %)” value in assay [1] (peptide 1/ug/ml) and in assay [1] (peptide 10/ug/ml) were 40% and 52%, respectively. For the same compound, the “Relief of inhibition (R %) of E-rosetta forming activity” value is 24.3% in assay [4] (peptide 10^-3 mole/l); 22.6% in assay [4] (peptide 10^-5 mole/l); 15.6% in assay [4] (peptide 10^-7 mole/l); 24.8% in assay [4] (peptide 10^-9 mole/l); 17.0% in assay [4] (peptide 10^-11 mole/l). Besides, the “Restoration … G %” value in assay [2] (setting [5]) is recorded as 78.1%; in assay [2] (setting [6]), 47.6%.

In the case of `CC(C)C[C@H](N)C(=O)N1CCC[C@H]1C(=O)N[C@@H](C)C(=O)NCC(=O)O` [Peptide 14, Leu-Pro AIa-Gly-OH] (H-LPAG-OH), the “Inhibition of the proliferation … (c %)” value is 45% in assay [1] (peptide 1/ug/ml) and 70% in assay [1] (peptide 10/ug/ml). For the same compound, the “Restoration … G %” value in assay [2] (setting [5]) stood at 34.0%; in assay [2] (setting [6]), 56.8%. Besides, the “Inhibition … as % of control” value in assay [3] (1 mg/kg i.p.) was 55%.

With `CC(C)C[C@H](N)C(=O)N[C@H](C(=O)N[C@@H](C)C(=O)O)C(C)C` [Peptide 7, Leu-VaI-AIa-OH] (H-Leu-Val-Ala-OH), the “Inhibition of the proliferation … (c %)” value in assay [1] (peptide 1/ug/ml) was 38%; in assay [1] (peptide 10/ug/ml), 52%. Moreover, the “Restoration … G %” value in assay [2] (setting [5]) is 73.3%; in assay [2] (setting [6]), 100.0%.

Regarding `CC(C)[C@H](NC(=O)[C@H](CC(=O)O)NC(=O)[C@H](CCCCN)NC(=O)[C@@H](N)CCCN=C(N)N)C(=O)N[C@@H](Cc1ccc(O)cc1)C(=O)O` [A, Arg--Lys--Asp--Val--Tyr, reference compound] (H-RKDVY-OH), the “Inhibition of the proliferation … (c %)” value in assay [1] (peptide 10/ug/ml) is on record as 32%. The “Relief of inhibition (R %) of E-rosetta forming activity” value in assay [4] (peptide 10^-3 mole/l) is reported as 31.7%; in assay [4] (peptide 10^-5 mole/l) it was 29.3%; in assay [4] (peptide 10^-7 mole/l), 38.7%; in assay [4] (peptide 10^-9 mole/l) it was 30.0%; in assay [4] (peptide 10^-11 mole/l), 19.4%.

In the case of `N=C(N)NCCC[C@H](N)C(=O)N[C@@H](CCCCN)C(=O)N[C@@H](CCC(=O)O)C(=O)O` [Peptide 5, Arg-Lys-GIu-OH] (H-Arg-Lys-Glu-OH), the entries for the “Inhibition of the proliferation … (c %)” value in assay [1] (peptide 1/ug/ml) and in assay [1] (peptide 10/ug/ml) were 40% and 48%, respectively. Further, the “Relief of inhibition (R %) of E-rosetta forming activity” value turned out to be 24.5% in assay [4] (peptide 10^-3 mole/l); 24.6% in assay [4] (peptide 10^-5 mole/l); 24.7% in assay [4] (peptide 10^-7 mole/l); 24.0% in assay [4] (peptide 10^-9 mole/l); 27.5% in assay [4] (peptide 10^-11 mole/l). Further, the results for the “Restoration … G %” value in assay [2] (setting [5]) and in assay [2] (setting [6]) were 61.5% and 76.9%, respectively.

Consider `CC(C)[C@H](NC(=O)[C@H](CC(=O)O)NC(=O)[C@H](CCCCN)NC(=O)[C@@H](N)CCCNC(=N)N)C(=O)O` [B, Arg--Lys--Asp--Val, reference compound] (H-RKDV-OH), for which the “Inhibition of the proliferation … (c %)” value in assay [1] (peptide 10/ug/ml) was determined as 4%. In addition, the “Relief of inhibition (R %) of E-rosetta forming activity” value in assay [4] (peptide 10^-3 mole/l) is listed as 35.4%; in assay [4] (peptide 10^-5 mole/l), 35.4%; in assay [4] (peptide 10^-7 mole/l) it was 46.4%; in assay [4] (peptide 10^-9 mole/l), 32.5%; in assay [4] (peptide 10^-11 mole/l), 34.0%.
